Reference: publication PMC10218704, “A Novel Blood–Brain Barrier-Penetrating and Vascular-Targeting Chimeric Peptide Inhibits Glioma Angiogenesis” (International Journal of Molecular Sciences, 2023)
Ends that are not written are not given here.

What was measured:
[1] = tested on: NRP-1; design: method as in 2 sources, ref 21 = [21]; PMID 17983687; doi:10.1016/j.peptides.2007.09.013; 21. Starzec A. Ladam P. Vassy R. Badache S. Bouchemal N. Navaza A. du Penhoat C.H. Perret G.Y. Structure-function analysis of the antiangiogenic ATWLPPR peptide inhibiting VEGF (165) binding to neurop ||| ref 36 = [36]; PMID 11327725; doi:10.1006/bbrc.2001.4790; 36. Jia H. Lohr M. Jezequel S. Davis D. Shaikh S. Selwood D. Zachary I. Cysteine-rich and basic domain HIV-1 Tat peptides inhibit angiogenesis and induce endothelial cell apoptosis Biochem. Biophys. R; conditions: C-terminal LPPR essential; cited from earlier work
[2] = tested on: HUVECs; experiment: Wound healing assay (cell migration); format: cell-based, human; conditions: 160 μmol/L; VEGF-A165 30 ng/mL; at 24 h or 48 h after scratch; n = 3
Protocol: HUVECs were firstly seeded into 6-well culture plates (3 × 10^5 cells/well). Following overnight incubation, the monolayer HUVECs were scraped by pipette tips of 200 μL and washed by cold PBS. […] The cells were incubated for another 48 h. Images were captured at 0 h, 24 h, and 48 h using an inverted microscope. The cell migration rate was counted by the ImageJ software.

[3] = tested on: HUVECs; experiment: Transwell invasion assay; format: cell-based, human; conditions: 160 μmol/L; VEGF-A165 30 ng/mL; 24 h; n = 3
Protocol: Matrigel was diluted in serum-free F-12K medium (dilution ratio 1:5) and was coated onto each transwell chamber and incubated at 37 °C for 2 h. HUVECs were seeded in the upper compartment of the transwell chamber at a density of 2 × 10^4 cells/well. F-12K medium (containing 20% serum) was added to the lower chamber. […] Then, the medium was aspirated, and the chambers were washed with PBS and placed in a fixative for 30 min, stained with 0.1% crystal violet for 30 min, washed with PBS, and dried. An inverted fluorescence microscope was used to photograph the chambers, and the number of invaded cells was counted. The cells that migrated to the bottom of the chamber were photographed with an inverted microscope.

[4] = tested on: PLC-γ; experiment: Western blot, phosphorylation of PLC-γ; format: cell-based, human; conditions: 320 μmol/L, 90 min, VEGF-A165 30 ng/mL, HUVECs, vs control, AT7, TAT, n = 3
Protocol: (§1) For Western blotting analysis, HUVECs were seeded into 6-well culture plates at 3 × 10^5 cells/well and incubated overnight. […] Two control groups (F-12K medium in the absence or presence of VEGF-A165) were set. The cells were washed with cold PBS and lysed with lysis buffer (protease and phosphatase inhibitors) on the ice for 30 min, and then centrifuged at 4 °C for 15 min at 14,000 r/min. The supernatant was collected, and its total protein concentration was determined by the BCA protein assay kit. Equal amounts of proteins were separated by 10% SDS-PAGE gels and transferred to polyvinylidene difluoride (PVDF) membranes. After blocking with 5% non-fat milk for 1 h, the membranes were incubated with specific antibodies at 4 °C overnight. Then, the membranes were washed with TBST (Tris-Buffered Saline with 0.1% Tween 20) and incubated with horseradish peroxidase (HRP)-conjugated secondary antibody for 1 h at room temperature. The proteins on the membranes were visualized with enhanced chemiluminescence agents.

[5] = tested on: AKT; experiment: Western blot, phosphorylation of AKT; format: cell-based, human; conditions: 320 μmol/L, 90 min, VEGF-A165 30 ng/mL, HUVECs, vs control, AT7, TAT, n = 3
Protocol: as §1

[6] = tested on: FAK; experiment: Western blot, phosphorylation of FAK; format: cell-based, human; conditions: 320 μmol/L, 90 min, VEGF-A165 30 ng/mL, HUVECs, vs control, AT7, TAT, n = 3
Protocol: as §1

[7] = tested on: U87-mCherry-luc glioma tissue; experiment: TUNEL staining of glioma tissue; format: in vivo, nude mice; conditions: 20 mg/kg/day i.v., 11 days; tissue at day 15; n = 3
Protocol: The orthotopic U87-mCherry-luc glioma-bearing nude mice were randomly assigned to 6 groups (n = 5) according to the bioluminescence intensity of glioma measured on day 4. […] The bioluminescence intensity was measured on days 4, 7, 11, and 14, respectively. Nude mice were weighed daily. On day 15, the mice were sacrificed, and the glioma-bearing brains were harvested. The brain tissues were fixed with 4.0% paraformaldehyde, embedded in paraffin, and cut into slices. The TUNEL staining and CD31 immunohistochemical staining were conducted according to standard histological procedures.

[8] = compared with TAT or AT7 alone; cited from earlier work
Description: Intracranial delivery of therapeutic agents is primarily hindered by the BBB [24]. The intercellular tight junction caused by the BBB restricts the passive diffusion of almost all large-molecule and more than 98% of small-molecule drugs from peripheral blood circulation to the brain tissue. TAT ([…]), one of the most promising cationic cell-penetrating peptides (CPPs), has been widely applied in drug delivery due to its high efficiency to facilitate the tissue penetration and internalization of cargos and break through a variety of biological barriers, such as cell membrane ...

Row | Molecule | effect on VEGF-A165 binding to NRP-1 [1] | migration rate [2] | invasion rate [3] | phosphorylation level of PLC-γ [4] | phosphorylation level of AKT [5] | phosphorylation level of FAK [6] | number of apoptotic cells (TUNEL) [7] | BBB-penetration capability [8]
1 | ATWLPPR [AT7, ATWLPPR] | inhibitory effect of AT7 on VEGF-A165 binding to NRP-1 |  |  |  |  |  |  | 
2 | CC(C)C[C@H](NC(=O)[C@H](Cc1c[nH]c2ccccc12)NC(=O)[C@@H](NC(=O)[C@H](C)NC(=O)[C@H](CS)NC(=O)[C@H](CCCNC(=N)N)NC(=O)[C@H](CCCNC(=N)N)NC(=O)[C@H](CCCNC(=N)N)NC(=O)[C@H](CCC(N)=O)NC(=O)[C@H](CCCNC(=N)N)NC(=O)[C@H](CCCNC(=N)N)NC(=O)[C@H](CCCCN)NC(=O)[C@H](CCCCN)NC(=O)[C@@H](N)CCCNC(=N)N)[C@@H](C)O)C(=O)N1CCC[C@H]1C(=O)N1CCC[C@H]1C(=O)N[C@@H](CCCNC(=N)N)C(=O)O [TAT-AT7] |  | significantly lower than that of the control, AT7, TAT, and TAT+AT7 groups | significantly lower than that of the other groups | significantly inhibited the phosphorylation level | significantly inhibited the phosphorylation level | significantly inhibited the phosphorylation level | significantly higher than that in the saline, AT7, TAT, and TAT+AT7 groups | stronger BBB-penetration capabilities
